Source: patent publication US6914045B2, “Glycopeptide antibiotics” (Wyeth Holdings Corporation, priority 2001, dated 2005)
In brackets after ≈: the same amount, converted by molar mass. Numbered stars: 1 amine (or outer) side, 2 acyl side, 3 side chain; on linkers, the order of the positions; unused ones are H or OH. Square brackets hold non-standard residues; d marks the D form. Peptide text beside a SMILES is read from it. * marks the point of attachment. ξ: configuration not given here. X1 = N=C1NCC(C(O)C(N[*:1])C(=O)[*:2])N1C1OC(CO)C(O)C(O)C1O; ξEnduracididine(βξ-OH,4'ξ) = N=C1NCC(C(O)C(N)C(=O)O)N1; X2 = OCC1OC(OC2C(CO)OC(*)C(O)C2O)C(O)C(O)C1O; ξCha(3ξ-Me) = CC(C1CCCCC1)C(N)C(=O)O

Key:
Test in all cases: in vitro antibacterial evaluation, MIC by broth dilution
Type in all cases: cell-based
[1] = test system: Escherichia coli; settings: broth dilution, 18 hours at 35° C.; for MIC Escherichia coli (ATCC 25922): strain ATCC 25922; for MIC Escherichia coli (GC 4559): strain GC 4559; for MIC Escherichia coli (GC 4560): strain GC 4560
Summary of the method: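 Broth dilution in Muller-Hinton II medium per NCCLS standard M7-A2, with an inoculum of 5×10^5 CFU/mL and antibiotic tested over 64-0.06 μg/mL. MIC was taken as the lowest concentration inhibiting visible growth.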

[2] = test system: Streptococcus sp.; settings: broth dilution, 18 hours at 35° C.; for MIC Streptococcus pneumoniae (ATCC 6301): strain ATCC 6301; for MIC Streptococcus pneumoniae (GC 1894): strain GC 1894; for MIC Streptococcus pyogenes (GC 4563): strain GC 4563; for MIC Streptococcus agalactiae (GC 4564): strain GC 4564; for MIC Streptococcus pneumoniae (GC 4565): strain GC 4565
Summary of the method: (§1)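 Broth dilution per NCCLS standard M7-A2 in Muller-Hinton II […], with an inoculum of 5×10^5 CFU/mL and antibiotic spanning 64-0.06 μg/mL. The MIC is the lowest concentration that inhibits growth of the organism.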

[3] = test system: Enterococcus sp.; settings: broth dilution, 18 hours at 35° C.; for MIC Enterococcus faecalis (ATCC 29212): strain ATCC 29212; for MIC Enterococcus faecalis (GC 2242): strain GC 2242; for MIC Enterococcus faecium (GC 2243): strain GC 2243; for MIC Enterococcus faecalis (GC 2691): strain GC 2691; for MIC Enterococcus faecalis (GC 3059): strain GC 3059; for MIC Enterococcus faecalis (GC 4552): strain GC 4552; for MIC Enterococcus faecalis (GC 4553): strain GC 4553; for MIC Enterococcus faecalis (GC 4554): strain GC 4554; for MIC Enterococcus faecium (GC 4556): strain GC 4556; for MIC Enterococcus faecium (GC 4557): strain GC 4557; for MIC Enterococcus avium (GC 4558): strain GC 4558; for MIC Enterococcus faecalis (GC 6189): strain GC 6189
Summary of the method: as §1

[4] = test system: Staphylococcus sp.; settings: broth dilution, 18 hours at 35° C.; for MIC Staphylococcus aureus (ATCC 29213): strain ATCC 29213; for MIC Staphylococcus aureus (GC 1131): strain GC 1131; for MIC Staphylococcus aureus (GC 3051): strain GC 3051; for MIC Staphylococcus aureus (GC 3053): strain GC 3053; for MIC Staphylococcus aureus (GC 4541): strain GC 4541; for MIC Staphylococcus aureus (GC 4542): strain GC 4542; for MIC Staphylococcus aureus-SMITH (GC 4543): strain GC 4543; for MIC Staphylococcus aureus (GC 4544): strain GC 4544; for MIC Staphylococcus aureus (GC 4545): strain GC 4545; for MIC Staphylococcus haemolyticus (GC 4546): strain GC 4546; for MIC Coagulase Negative Staphylococcus (GC 4547): strain GC 4547; for MIC Coagulase Negative Staphylococcus (GC 4548): strain GC 4548; for MIC Coagulase Negative Staphylococcus (GC 4549): strain GC 4549; for MIC Coagulase Negative Staphylococcus (GC 4551): strain GC 4551
Summary of the method: as §1

Compound	MIC Escherichia coli (ATCC 25922) [1] [µg/mL]	MIC Escherichia coli (GC 4559) [1] [µg/mL]	MIC Escherichia coli (GC 4560) [1] [µg/mL]	MIC Streptococcus pneumoniae (ATCC 6301) [2] [µg/mL]	MIC Streptococcus pneumoniae (GC 1894) [2] [µg/mL]	MIC Streptococcus pyogenes (GC 4563) [2] [µg/mL]	MIC Streptococcus agalactiae (GC 4564) [2] [µg/mL]	MIC Streptococcus pneumoniae (GC 4565) [2] [µg/mL]	MIC Enterococcus faecalis (ATCC 29212) [3] [µg/mL]	MIC Enterococcus faecalis (GC 2242) [3] [µg/mL]	MIC Enterococcus faecium (GC 2243) [3] [µg/mL]	MIC Enterococcus faecalis (GC 2691) [3] [µg/mL]	MIC Enterococcus faecalis (GC 3059) [3] [µg/mL]	MIC Enterococcus faecalis (GC 4552) [3] [µg/mL]	MIC Enterococcus faecalis (GC 4553) [3] [µg/mL]	MIC Enterococcus faecalis (GC 4554) [3] [µg/mL]	MIC Enterococcus faecium (GC 4556) [3] [µg/mL]	MIC Enterococcus faecium (GC 4557) [3] [µg/mL]	MIC Enterococcus avium (GC 4558) [3] [µg/mL]	MIC Enterococcus faecalis (GC 6189) [3] [µg/mL]	also measured
CC(c1ccccc1)C1NC(=O)CNC(=O)C(CO)NC(=O)C(C(O)C2CNC(=N)N2C2OC(CO)C(O)C(O)C2O)NC(=O)C(C(O)C2CNC(=N)N2)NC(=O)C(Cc2ccc3oc(SCC(=O)c4ccccc4)nc3c2)NC1=O (stereo not shown) [Example 48]	32 (≈ 27.9 µM)	32 (≈ 27.9 µM)	4 (≈ 3.49 µM)	16 (≈ 14 µM)	8 (≈ 6.98 µM)	8 (≈ 6.98 µM)	16 (≈ 14 µM)	32 (≈ 27.9 µM)	64 (≈ 55.8 µM)	64 (≈ 55.8 µM)	16 (≈ 14 µM)	64 (≈ 55.8 µM)	64 (≈ 55.8 µM)	64 (≈ 55.8 µM)	16 (≈ 14 µM)	64 (≈ 55.8 µM)	64 (≈ 55.8 µM)	4 (≈ 3.49 µM)	8 (≈ 6.98 µM)	64 (≈ 55.8 µM)	MIC Staphylococcus aureus (ATCC 29213) [4]: 32 µg/mL (≈ 27.9 µM); MIC Staphylococcus aureus (GC 1131) [4]: 16 µg/mL (≈ 14 µM); MIC Staphylococcus aureus (GC 3051) [4]: 16 µg/mL (≈ 14 µM); MIC Staphylococcus aureus (GC 3053) [4]: 16 µg/mL (≈ 14 µM); MIC Staphylococcus aureus (GC 4541) [4]: 16 µg/mL (≈ 14 µM); MIC Staphylococcus aureus (GC 4542) [4]: 16 µg/mL (≈ 14 µM); MIC Staphylococcus aureus-SMITH (GC 4543) [4]: 16 µg/mL (≈ 14 µM); MIC Staphylococcus aureus (GC 4544) [4]: 16 µg/mL (≈ 14 µM); MIC Staphylococcus aureus (GC 4545) [4]: 16 µg/mL (≈ 14 µM); MIC Staphylococcus haemolyticus (GC 4546) [4]: 8 µg/mL (≈ 6.98 µM); MIC Coagulase Negative Staphylococcus (GC 4547) [4]: 4 µg/mL (≈ 3.49 µM); MIC Coagulase Negative Staphylococcus (GC 4548) [4]: 8 µg/mL (≈ 6.98 µM); MIC Coagulase Negative Staphylococcus (GC 4549) [4]: 4 µg/mL (≈ 3.49 µM); MIC Coagulase Negative Staphylococcus (GC 4551) [4]: 16 µg/mL (≈ 14 µM)
CC(c1ccccc1)C1NC(=O)CNC(=O)C(CO)NC(=O)C(C(O)C2CNC(=N)N2C2OC(CO)C(O)C(O)C2O)NC(=O)C(C(O)C2CNC(=N)N2)NC(=O)C(Cc2ccc3oc(-c4ccccc4OC4OC(CO)C(O)C(O)C4O)nc3c2)NC1=O (stereo not drawn) [Example 36, Cyclo[3-[2-[2-(hexopyranosyloxy)phenyl]-1,3-benzoxazol-5-yl]alanyl-3-(2-iminoimidazolidin-4-yl)seryl-3-(3-hexopyranosyl-2-iminoimidazolidin-4-yl)serylserylglycyl-β-methyl-phenylalanyl]]	>128	128 (≈ 102 µM)	64 (≈ 51.2 µM)	>128	128 (≈ 102 µM)	128 (≈ 102 µM)	>128	>128	>128	>128	>128	>128	>128	>128	128 (≈ 102 µM)	>128	>128	128 (≈ 102 µM)	128 (≈ 102 µM)	>128	MIC Staphylococcus aureus (ATCC 29213) [4]: >128 µg/mL; MIC Staphylococcus aureus (GC 1131) [4]: >128 µg/mL; MIC Staphylococcus aureus (GC 3051) [4]: >128 µg/mL; MIC Staphylococcus aureus (GC 3053) [4]: >128 µg/mL; MIC Staphylococcus aureus (GC 4541) [4]: >128 µg/mL; MIC Staphylococcus aureus (GC 4542) [4]: >128 µg/mL; MIC Staphylococcus aureus-SMITH (GC 4543) [4]: >128 µg/mL; MIC Staphylococcus aureus (GC 4544) [4]: >128 µg/mL; MIC Staphylococcus aureus (GC 4545) [4]: >128 µg/mL; MIC Staphylococcus haemolyticus (GC 4546) [4]: 64 µg/mL (≈ 51.2 µM); MIC Coagulase Negative Staphylococcus (GC 4547) [4]: 64 µg/mL (≈ 51.2 µM); MIC Coagulase Negative Staphylococcus (GC 4548) [4]: 128 µg/mL (≈ 102 µM); MIC Coagulase Negative Staphylococcus (GC 4549) [4]: 64 µg/mL (≈ 51.2 µM); MIC Coagulase Negative Staphylococcus (GC 4551) [4]: >128 µg/mL; MIC Coagulase Negative Staphylococcus (GC 6257) ([4]; strain GC 6257): 64 µg/mL (≈ 51.2 µM)
CC(C1CCCCC1)C1NC(=O)CNC(=O)C(CO)NC(=O)C(C(O)C2CNC(=N)N2C2OC(CO)C(O)C(O)C2O)NC(=O)C(C(O)C2CNC(=N)N2)NC(=O)C(Cc2ccc(OC3OC(CO)C(OC4OC(CO)C(O)C(O)C4O)C(O)C3O)cc2)NC1=O (stereo not drawn) [Example 51, Cyclo[3-cyclohexyl-2-aminobutanoyl-O-(4-O-hexopyranosylhexopyranosyl)tyrosyl-3-(2-iminoimidazolidin-4-yl)seryl-3-(3-hexopyranosyl-2-iminoimidazolidin-4-yl)-serylserylglycyl]] (cyclo(G[ξCha(3ξ-Me)]Y(X2)[ξEnduracididine(βξ-OH,4'ξ)][X1]S); configuration not given here)	>64	64 (≈ 49.2 µM)	8 (≈ 6.15 µM)	8 (≈ 6.15 µM)	4 (≈ 3.07 µM)	8 (≈ 6.15 µM)	16 (≈ 12.3 µM)	8 (≈ 6.15 µM)	>64	64 (≈ 49.2 µM)	>64	>64	>64	>64	>64	>64	>64	16 (≈ 12.3 µM)	64 (≈ 49.2 µM)	>64	MIC Staphylococcus aureus (ATCC 29213) [4]: 32 µg/mL (≈ 24.6 µM); MIC Staphylococcus aureus (GC 1131) [4]: 32 µg/mL (≈ 24.6 µM); MIC Staphylococcus aureus (GC 3051) [4]: 32 µg/mL (≈ 24.6 µM); MIC Staphylococcus aureus (GC 3053) [4]: 64 µg/mL (≈ 49.2 µM); MIC Staphylococcus aureus (GC 4541) [4]: 32 µg/mL (≈ 24.6 µM); MIC Staphylococcus aureus (GC 4542) [4]: 32 µg/mL (≈ 24.6 µM); MIC Staphylococcus aureus-SMITH (GC 4543) [4]: 32 µg/mL (≈ 24.6 µM); MIC Staphylococcus aureus (GC 4544) [4]: 32 µg/mL (≈ 24.6 µM); MIC Staphylococcus aureus (GC 4545) [4]: 32 µg/mL (≈ 24.6 µM); MIC Staphylococcus haemolyticus (GC 4546) [4]: 32 µg/mL (≈ 24.6 µM); MIC Coagulase Negative Staphylococcus (GC 4547) [4]: 16 µg/mL (≈ 12.3 µM); MIC Coagulase Negative Staphylococcus (GC 4548) [4]: 16 µg/mL (≈ 12.3 µM); MIC Coagulase Negative Staphylococcus (GC 4549) [4]: 4 µg/mL (≈ 3.07 µM); MIC Coagulase Negative Staphylococcus (GC 4551) [4]: 64 µg/mL (≈ 49.2 µM)
